Measured values reported in patent US9499517B2, “Substituted prolines / piperidines as orexin receptor antagonists” (Eolas Therapeutics, Inc., priority 2012, dated 2016).
Like-named read-outs stand apart in the source and are kept apart here.

Legend:
[1] = target: T1, OX1 (Homo sapiens, UniProt O43613); assay: Orexin receptor cell-based functional assay: [Ca2+]i by FLIPR in CHO-OX1 cells, antagonism of EC90 of OXA
T1 construct: expressed in transfected cells; host or cells: CHO (CHO-OX1, kept under G418 or Blasticidin selection)
T1 sequence (O43613 1-425): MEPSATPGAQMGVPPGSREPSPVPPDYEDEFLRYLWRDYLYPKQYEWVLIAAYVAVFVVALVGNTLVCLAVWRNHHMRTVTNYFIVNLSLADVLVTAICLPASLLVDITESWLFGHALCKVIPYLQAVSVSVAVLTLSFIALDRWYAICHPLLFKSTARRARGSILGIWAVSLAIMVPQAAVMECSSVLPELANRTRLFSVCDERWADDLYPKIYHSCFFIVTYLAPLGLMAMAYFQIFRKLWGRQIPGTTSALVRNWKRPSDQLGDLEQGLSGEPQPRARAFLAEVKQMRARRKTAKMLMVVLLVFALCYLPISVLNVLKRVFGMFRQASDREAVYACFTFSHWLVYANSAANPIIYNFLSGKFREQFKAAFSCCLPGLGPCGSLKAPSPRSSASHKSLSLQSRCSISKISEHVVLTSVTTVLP
Description: Orexin Receptor Cell-based Functional Assay.
Measurement of [Ca^2+]i using a FLIPR: CHO—OX1 or CHO—OX2 cells are seeded into black-walled clear-base 384-well plates (Costar) at a density of 20,000 cells per well in F12-K medium supplemented with 10% FBS and selection antibiotic (500 ug/ml G418 or 15 ug/ml Blasticidin) and cultured overnight. The cells are incubated with equal volume of calcium 4 loading buffer (Molecular Devices, Inc.) containing 2.5 mM probenecid at 37° C. for 30 min, followed by putative OX1 or OX2 receptor antagonists (dose-range 0.1 nM-10 μM) for another 30 min.

[2] = target: T2, CYP3A4 (Homo sapiens, UniProt P08684); assay: Cytochrome P450 inhibition assay: midazolam hydroxylation to 1'-hydroxymidazolam in human liver microsomes, with or without 30 min pre-incubation; type: in vitro ADME; settings: human, human liver microsomes, probe midazolam, 10 μM test compound; for inhibition at 5 min, 10 µM: read-out: CYP3A4 % inh (10 μM, 5 min); for inhibition at 30 min, 10 µM: 30 min (time-dependent inhibition), read-out: CYP3A4 % inh (10 μM, 30 min)
T2 construct: pre-incubated with human liver microsomes and NADPH for 30 minutes; from tissue; host or cells: human liver microsomes
Description: (§1) Cytochrome P450 Inhibition Assay.
(§2) Compounds were tested for the potential to induce drug-drug interactions by inhibition of the cytochrome P450 3A4 isoform. The assay evaluated the metabolism of a specific marker substrate (CYP3A4, midazolam hydroxylation to 1′-hydroxymidazolam) in the presence or absence of 10 μM test compound. […] A specific inhibitor for the isoform was included in each run to validate the system. An appropriate positive control inhibitor was used. Mechanism-based inhibition was investigated where warranted using a classical method. […] The percent inhibition of the pre-incubated and non-pre-incubated samples were compared as a preliminary evaluation of time-dependent inhibition.

[3] = system: mice; assay: Food self-administration (lever press for food pellets) in WT and Hcrt-R1 KO mice; type: in vivo; settings: systemic administration 30 min prior to the session
[4] = system: mice; assay: Nicotine self-administration assay (IV nicotine) in WT, Hcrt-R1 KO and virally-rescued mice; type: in vivo
Text: Nicotine Self-Administration Assay
Development of Animal Subjects.
To generate Hcrt-R1^+/+ and […] mice, breeding pairs of male and female Hcrt-R1^+/− mice that were backcrossed >10 generations on a C57BL/6 background were obtained from Jackson Laboratory (Bar Harbor, Me.). For all experiments, mice weighing 25-35 g were housed in groups of 2-3 per cage, in a temperature-controlled vivarium under a reversed 12-h light/dark cycle (lights off at 8 am). Food and water were provided ad libitum until behavioral training commenced. During training, mice were food-restricted to maintain ˜85-90% of their free-feeding body weight. Behavioral testing occurred during the dark portion of the light/dark cycle between the hours of 9 am-1 pm, during the early portion of the dark phase of the cycle. All procedures were conducted in strict adherence with the National Institutes of Health Guide for the Care and Use of Laboratory Animals and were approved by the Institutional Animal Care and Use Committee of The Scripps Research Institute.
Mice were anesthetized by inhalation of 1-3% isoflurane in oxygen and silastic catheters were inserted into the jugular veins. […] During the TO period, responding on the lever was recorded but without scheduled consequence. […]

[5] = target: T3, cytochrome P450 3A4 isoform (Homo sapiens, UniProt P08684); assay: Cytochrome P450 inhibition assay: midazolam hydroxylation to 1'-hydroxymidazolam in human liver microsomes, with or without 30 min pre-incubation; type: in vitro ADME; settings: relative to Examples 112 and 114 (Table 4)
T3 construct: pre-incubated with human liver microsomes and NADPH for 30 minutes; from tissue; host or cells: human liver microsomes
Description: as §1, §2

[6] = Table 2A, bioactivity with respect to OX1, CHO-OX1 cells, FLIPR, read-out: OX1

T2 sequence (P08684 whole entry): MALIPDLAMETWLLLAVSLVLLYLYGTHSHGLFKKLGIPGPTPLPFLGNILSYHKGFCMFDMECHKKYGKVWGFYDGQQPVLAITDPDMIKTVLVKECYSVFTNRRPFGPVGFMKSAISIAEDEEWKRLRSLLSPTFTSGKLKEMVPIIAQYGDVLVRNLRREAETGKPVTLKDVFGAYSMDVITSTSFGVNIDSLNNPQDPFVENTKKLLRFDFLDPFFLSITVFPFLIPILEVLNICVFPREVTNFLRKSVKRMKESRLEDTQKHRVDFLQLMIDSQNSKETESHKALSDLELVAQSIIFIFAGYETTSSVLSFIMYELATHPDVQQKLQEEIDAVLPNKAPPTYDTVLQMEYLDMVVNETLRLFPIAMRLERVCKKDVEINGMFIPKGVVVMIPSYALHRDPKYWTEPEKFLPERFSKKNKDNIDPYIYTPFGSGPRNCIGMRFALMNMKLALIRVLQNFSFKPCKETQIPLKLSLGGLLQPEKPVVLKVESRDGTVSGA
T3 sequence (P08684 whole entry, canonical isoform): as the sequence (P08684 whole entry) above

**Q.** How did the IC50 ([1]; Table 5, read-out: OX1 IC50) turn out when `Cc1nc(C(=O)N2CCCCC2CNc2ncc(C(F)(F)F)cn2)c(-c2ccc(F)cc2)s1` (centres unmarked) [SR-12376, reference compound] was run?
**A.** Its IC50 is 13 nM.

**Q.** `CC(=O)NC1CCC(CNC(=O)c2cccc3cccnc23)N(C(=O)c2ccccc2-c2ccccc2)C1` (racemic) [Example 43, rac-N-((5-acetamido-1-(biphenylcarbonyl)piperidin-2-yl)methyl)quinoline-8-carboxamide] was tested. Which IC50 ([1]; Table 2, IC50 bioactivity, CHO-OX1 cells, FLIPR, read-out: OX1) did it give?
**A.** The IC50 was 2000 nM.

**Q.** `Cc1ccc(-n2nccn2)c(C(=O)N2CCC[C@@H](C)[C@H]2CNc2ccc(C(F)(F)F)cn2)c1` (racemic) [Example 114, rac-((2S,3R)-3-methyl-2-(((5-(trifluoromethyl)pyridin-2-yl)amino)methyl)piperidin-1-yl)(5-methyl-2-(2H-1,2,3-triazol-2-yl)phenyl)methanone] was tested. Which inhibition at 5 min, 10 µM [2] did it give?
**A.** Its inhibition at 5 min, 10 µM is 78%.

**Q.** And the inhibition at 30 min, 10 µM [2]?
**A.** The inhibition at 30 min, 10 µM was 93%.

**Q.** What does the source list for `CC1(C)OC[C@H](NC(=O)Nc2ccc(Br)cc2Br)[C@H](c2ccccc2)O1` [JNJ 10397049]?
**A.** food self-administration (SA) [3]: no effect on SA of food pellets; nicotine self-administration (SA) ([4]; KO mice): marginal decrease in nicotine SA; nicotine self-administration (SA) ([4]; doses 0, 5 and 10 mg/kg, WT mice): no effect on nicotine SA

**Q.** `Cc1nc(C(=O)N2CCC[C@@H](C)[C@H]2CNc2ccc(C(F)(F)F)cn2)c(-c2ccc(F)cc2)s1` (racemic) [Example 11, rac-(5-(4-fluorophenyl)-2-methylthiazol-4-yl)((2S,3R)-3-methyl-2-(((5-(trifluoromethyl)pyridin-2-yl)amino)methyl)piperidin-1-yl)methanone] was tested. Which “food self-administration (SA)” value [3] did it give?
**A.** Its value is “no effect on food SA”.

**Q.** With `Cc1ccc(-n2nccn2)c(C(=O)N2CCC[C@@H](C)[C@H]2CNc2nnc(C(F)(F)F)s2)c1` [Example A102, ((2S,3R)-3-Methyl-2-(((5-(trifluoromethyl)-1,3,4-thiadiazol-2-yl)amino)methyl)piperidin-1-yl)(5-methyl-2-(2H-1,2,3-triazol-2-yl)phenyl)methanone] as the compound, how does the IC50 [1, 6] read?
**A.** The IC50 was 61 nM.

**Q.** `Cc1ccc(-c2ncccn2)c(C(=O)N2CCC[C@@H](C)[C@H]2CNc2ccc(C(F)(F)F)cn2)c1` (racemic) [Example 112, rac-((2S,3R)-3-methyl-2-(((5-(trifluoromethyl)pyridin-2-yl)amino)methyl)piperidin-1-yl)(5-methyl-2-(pyrimidin-2-yl)phenyl)methanone] was tested. Which inhibition at 5 min, 10 µM [2] did it give?
**A.** The inhibition at 5 min, 10 µM was 72%.

**Q.** And the inhibition at 30 min, 10 µM [2]?
**A.** Its inhibition at 30 min, 10 µM is 94%.

**Q.** What about the IC50 ([1]; Table 4, read-out: OX1 IC50) of the same compound?
**A.** Its IC50 is 42 nM.

**Q.** Which results are given for `C[C@@H]1CCCN(C(=O)c2cc(F)ccc2-n2nccn2)[C@@H]1CNc1ncc(C(F)(F)F)cn1` [Example A207, (5-Fluoro-2-(2H-1,2,3-triazol-2-yl)phenyl)((2S,3R)-3-methyl-2-(((5-(trifluoromethyl)pyrimidin-2-yl)amino)methyl)piperidin-1-yl)methanone]?
**A.** inhibition at 30 min, 10 µM [2]: 52%; inhibition of CYP3A4 [5]: reduced inhibition of CYP3A4

**Q.** Which results are given for `C[C@@H]1CCCN(C(=O)c2cc(Cl)ccc2-c2ncccn2)[C@@H]1CNc1ncc(C(F)(F)F)cn1` [Example A201, (5-Chloro-2-(pyrimidin-2-yl)phenyl)((2S,3R)-3-methyl-2-(((5-(trifluoromethyl)pyrimidin-2-yl)amino)methyl)piperidin-1-yl)methanone]?
**A.** inhibition at 30 min, 10 µM [2]: 59%; inhibition of CYP3A4 [5]: reduced inhibition of CYP3A4

**Q.** Which IC50 ([1]; Table 5, read-out: OX1 IC50) does the source give for `Cc1nc(C(=O)N2CCCC(C)(C)C2CNc2ncc(C(F)(F)F)cn2)c(-c2ccc(F)cc2)s1` (centres unmarked) [SR-12364, reference compound] here?
**A.** The IC50 was 137 nM.

**Q.** With `C[C@@H]1CCCN(C(=O)c2cc(F)ccc2-c2ncccn2)[C@@H]1CNc1ncc(C(F)(F)F)cn1` [Compound A227, (5-Fluoro-2-(pyrimidin-2-yl)phenyl)((2S,3R)-3-methyl-2-(((5-(trifluoromethyl)pyrimidin-2-yl)amino)methyl)piperidin-1-yl)methanone] as the compound, how does the inhibition at 30 min, 10 µM [2] read?
**A.** Its inhibition at 30 min, 10 µM is 58%.

**Q.** For `C[C@@H]1CCCN(C(=O)c2c(F)cccc2-n2nccn2)[C@@H]1CNc1ncc(C(F)(F)F)cn1` [Compound A259, (2-fluoro-6-(2H-1,2,3-triazol-2-yl)phenyl)((2S,3R)-3-methyl-2-(((5-(trifluoromethyl)pyrimidin-2-yl)amino)methyl)piperidin-1-yl)methanone], which inhibition at 30 min, 10 µM [2] is on record?
**A.** Its inhibition at 30 min, 10 µM is 41%.

**Q.** `Cc1ccc(-n2nccn2)c(C(=O)N2CCC[C@@H](C)[C@H]2CNc2ncc(C#N)cc2F)n1` [Example A193, 5-Fluoro-6-((((2S,3R)-3-methyl-1-(6-methyl-3-(2H-1,2,3-triazol-2-yl)picolinoyl)piperidin-2-yl)methyl)amino)nicotinonitrile] was tested. Which IC50 [1, 6] did it give?
**A.** The IC50 was 100 nM.
